Test results: patent US20130096159A1, “INHIBITORS OF HUMAN 12-LIPOXYGENASE” (The United States of America, as represented the Secretary …, priority 2010, published 2013)
Each block holds one molecule with its values, some of them ahead of it.

How the values were obtained:
human 12-lipoxygenase = biological target: T1, human 12-lipoxygenase (Homo sapiens, UniProt P18054); test: human 12-lipoxygenase inhibition (12hLO) assay, absorbance at 234 nm; assay type: biochemical
T1 sequence (P18054 1-663): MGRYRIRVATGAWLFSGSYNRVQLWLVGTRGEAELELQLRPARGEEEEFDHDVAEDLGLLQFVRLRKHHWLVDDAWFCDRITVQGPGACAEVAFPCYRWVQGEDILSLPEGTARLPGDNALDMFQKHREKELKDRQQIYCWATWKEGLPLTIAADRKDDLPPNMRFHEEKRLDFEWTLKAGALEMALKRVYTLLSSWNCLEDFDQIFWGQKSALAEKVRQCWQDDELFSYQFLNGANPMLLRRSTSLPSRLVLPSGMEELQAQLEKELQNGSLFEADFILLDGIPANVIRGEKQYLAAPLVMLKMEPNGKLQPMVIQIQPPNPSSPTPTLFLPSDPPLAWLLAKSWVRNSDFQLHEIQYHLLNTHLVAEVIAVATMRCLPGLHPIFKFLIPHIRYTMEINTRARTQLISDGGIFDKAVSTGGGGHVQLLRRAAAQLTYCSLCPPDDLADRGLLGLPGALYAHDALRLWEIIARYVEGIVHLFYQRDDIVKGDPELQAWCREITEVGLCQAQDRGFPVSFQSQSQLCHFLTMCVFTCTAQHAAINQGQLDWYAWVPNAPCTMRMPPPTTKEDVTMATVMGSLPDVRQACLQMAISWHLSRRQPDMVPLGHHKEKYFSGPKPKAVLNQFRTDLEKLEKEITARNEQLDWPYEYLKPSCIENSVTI

human 5-lipoxygenase = biological target: T2, human 5-lipoxygenase (Homo sapiens, UniProt P09917); test: 5hLO inhibition screen; assay type: biochemical; settings: Table 2
T2 sequence (P09917 1-674): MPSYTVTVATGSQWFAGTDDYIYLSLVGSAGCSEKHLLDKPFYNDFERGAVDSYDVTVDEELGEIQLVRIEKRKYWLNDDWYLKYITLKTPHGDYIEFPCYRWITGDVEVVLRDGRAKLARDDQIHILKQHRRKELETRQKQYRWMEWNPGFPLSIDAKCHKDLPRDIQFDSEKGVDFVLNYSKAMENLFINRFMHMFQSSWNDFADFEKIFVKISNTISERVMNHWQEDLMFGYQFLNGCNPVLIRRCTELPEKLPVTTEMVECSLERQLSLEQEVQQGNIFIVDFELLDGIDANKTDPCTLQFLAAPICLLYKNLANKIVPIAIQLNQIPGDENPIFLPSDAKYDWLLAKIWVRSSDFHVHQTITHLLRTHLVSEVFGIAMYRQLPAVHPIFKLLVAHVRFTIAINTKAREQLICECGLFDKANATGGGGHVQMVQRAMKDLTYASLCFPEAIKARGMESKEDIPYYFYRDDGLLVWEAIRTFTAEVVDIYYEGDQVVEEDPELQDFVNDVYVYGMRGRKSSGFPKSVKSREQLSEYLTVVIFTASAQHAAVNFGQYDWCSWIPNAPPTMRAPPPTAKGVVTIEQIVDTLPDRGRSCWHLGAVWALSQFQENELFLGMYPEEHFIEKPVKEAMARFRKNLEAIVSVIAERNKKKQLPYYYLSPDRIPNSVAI

[1] = aqueous kinetic solubility; assay type: physicochemical
Caco-2 = Caco-2 permeability; assay type: in vitro ADME
[2] = mouse liver microsome stability; assay type: in vitro ADME; settings: liver microsomes, read-out: mouse liver microsome stability (T1/2)
PBS buffer stability = assay type: physicochemical
mouse plasma stability = assay type: in vitro ADME
[3] = in vivo PK, IP administration in CD1 mice; settings: IP 30 mg/kg
human 15-lipoxygenase-2 = biological target: T3, human 15-lipoxygenase-2 (Homo sapiens, UniProt O15296); test: 15hLO-2 inhibition screen; assay type: biochemical; settings: Table 2
T3 sequence (O15296 1-676): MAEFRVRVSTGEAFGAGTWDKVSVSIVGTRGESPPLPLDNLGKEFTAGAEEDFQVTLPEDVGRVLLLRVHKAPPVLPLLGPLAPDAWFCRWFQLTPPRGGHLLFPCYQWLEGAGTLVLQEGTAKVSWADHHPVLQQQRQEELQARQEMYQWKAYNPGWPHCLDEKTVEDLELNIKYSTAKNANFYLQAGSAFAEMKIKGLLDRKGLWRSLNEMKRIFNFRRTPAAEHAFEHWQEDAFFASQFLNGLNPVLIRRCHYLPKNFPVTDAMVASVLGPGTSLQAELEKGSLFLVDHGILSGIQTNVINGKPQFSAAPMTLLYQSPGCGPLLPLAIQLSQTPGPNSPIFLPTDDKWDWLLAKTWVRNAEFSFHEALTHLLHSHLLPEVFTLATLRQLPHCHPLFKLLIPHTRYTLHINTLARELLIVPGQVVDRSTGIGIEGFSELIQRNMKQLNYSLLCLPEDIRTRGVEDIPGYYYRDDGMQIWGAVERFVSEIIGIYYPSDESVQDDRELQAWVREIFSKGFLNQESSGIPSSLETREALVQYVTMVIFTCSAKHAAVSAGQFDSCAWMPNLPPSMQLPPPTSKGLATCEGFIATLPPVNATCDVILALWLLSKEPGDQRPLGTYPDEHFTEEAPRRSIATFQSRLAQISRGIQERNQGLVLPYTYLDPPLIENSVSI

Human islets = test: gene expression in cytokine-stimulated human islets, Taqman real time PCR; assay type: cell-based; settings: TNF-α
Procedure: Human islets were incubated for 22 hours following stimulation with the inflammatory cytokines IFN-γ, TNF-α, and IL-1-β alone or in the presence of compound 1 or compound 9. Control islets were incubated for 22 hours in the absence of inflammatory cytokines or compounds. Following the incubation, gene expression for 12-LO, 15-LO, 5-LO, IL-12p40, and IFN-γ were determined using Taqman real time PCR.

recombinant human cPLA2 = biological target: T4, recombinant human cPLA2 (Homo sapiens, UniProt P47712); test: cPLA2 enzymatic activity assay; assay type: biochemical; settings: 5 min of incubation, FIG. 8
T4 sequence (P47712 1-749): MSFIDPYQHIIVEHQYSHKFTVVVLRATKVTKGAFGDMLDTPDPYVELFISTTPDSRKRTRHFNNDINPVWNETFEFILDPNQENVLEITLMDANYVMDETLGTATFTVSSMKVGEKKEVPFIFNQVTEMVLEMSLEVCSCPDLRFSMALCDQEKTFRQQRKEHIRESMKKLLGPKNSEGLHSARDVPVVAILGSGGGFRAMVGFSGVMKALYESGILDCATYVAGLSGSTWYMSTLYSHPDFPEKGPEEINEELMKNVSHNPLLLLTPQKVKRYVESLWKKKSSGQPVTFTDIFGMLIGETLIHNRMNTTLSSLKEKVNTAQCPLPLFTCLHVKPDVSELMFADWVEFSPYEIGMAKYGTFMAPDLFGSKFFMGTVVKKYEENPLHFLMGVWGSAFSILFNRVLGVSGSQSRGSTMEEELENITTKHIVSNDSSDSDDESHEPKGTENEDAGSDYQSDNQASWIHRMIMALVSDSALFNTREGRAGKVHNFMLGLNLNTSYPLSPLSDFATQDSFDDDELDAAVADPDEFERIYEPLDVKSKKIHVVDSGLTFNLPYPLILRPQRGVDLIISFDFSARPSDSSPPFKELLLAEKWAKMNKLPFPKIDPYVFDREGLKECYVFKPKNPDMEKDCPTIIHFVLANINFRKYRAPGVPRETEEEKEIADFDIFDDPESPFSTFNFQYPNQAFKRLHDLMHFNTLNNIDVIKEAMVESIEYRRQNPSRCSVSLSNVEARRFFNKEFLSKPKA
Procedure: A., et al., Biochemistry, 2011, 50: 1731-1738 with the following differences. The inhibitors in solution in DMSO were added at a final concentration of 50 μM right before the recombinant enzyme was added to initiate the reaction. After 5 min of incubation, the products of reaction were analyzed, and the results depicted in FIG. 8.

[4] = relative to control islets, IFN-γ, IL-1-β stimulation, 22 hours

times more potent as an inhibitor of 12-lipoxygenase than the dextrorotatory enantiomer (human 12-lipoxygenase; levorotatory vs dextrorotatory enantiomer): more than 58 times | IC50 (human 5-lipoxygenase): > 250 µM | aqueous kinetic solubility (in words) [1]: acceptable | cell permeability (in words) (Caco-2): good | Caco-2 (Papp 10^−6 m/s @ pH 7.4) (Caco-2; pH 7.4): 8.8 10^−6 m/s | half-life [2]: < 10 min | stability in PBS buffer (in words) (PBS buffer stability): excellent | PBS-pH 7.4 stability: % remaining after 48 h (PBS buffer stability; PBS pH 7.4, 48 h): 100% | stability in mouse plasma (in words) (mouse plasma stability): excellent | t1/2 (h) (brain) ([3]; brain): 1.7 h | t1/2 (h) (plasma) ([3]; plasma): 3.5 h | tmax (h) [plasma] ([3]; plasma): 0.25 h | Tmax ([3]; mouse, brain): 30 min | Kp at 24 h ([3]; mouse, brain/plasma, average [b/p] ratio over 8 time points (24 h period)): 0.01
SMILES: CC(=O)NC(c1cccs1)c1cc(Br)c2cccnc2c1O (single isomer, unassigned) [Compound 36, N-((5-bromo-8-hydroxyquinolin-7-yl)(thiophen-2-yl)methyl)acetamide]
crossing of the blood-brain barrier [3]: does not efficiently cross the blood-brain barrier

selectivity for inhibition of human 12-lipoxygenase as compared with human 5-lipoxygenase, 15-lipoxygenase-1 and 15-lipoxygenase-2 (human 12-lipoxygenase): exhibited selectivity | IC50 (human 12-lipoxygenase; 12hLO Inhibition, Table 1, read-out: IC50 (μM) [± SD μM]): 1 µM | IC50 (human 5-lipoxygenase): > 150 µM | IC50 (human 15-lipoxygenase-2): > 150 µM
SMILES: CCC(=O)NC(c1ccco1)c1cc(Cl)c2cccnc2c1O (stereo not drawn) [Compound 9, N-((5-chloro-8-hydroxyquinolin-7-yl)(furan-2-yl)methyl)propionamide]
reduction in IFN-γ expression (Human islets; induced by IFN-γ, IL-1-β): 4 fold | reduction in IL-12p40 mRNA expression (Human islets; induced by IFN-γ, IL-1-β): 40 fold | Change in Gene Expression 5-LO (Human islets; [4]): 1 | Change in Gene Expression 12-LO (Human islets; [4]): 12 | Change in Gene Expression 15-LO (Human islets; [4]): 4 | Change in Gene Expression IFN-γ (Human islets; [4]): 4 | Change in Gene Expression IL-12p40 (Human islets; [4]): 3

inhibition at 50 µM (recombinant human cPLA2): ~60%
SMILES: O=c1cc(-c2ccccc2)oc2cc(O)c(O)c(O)c12 [baicalein, reference compound]
